# From patent US11759462B2, “Spirocyclic compounds as tryptophan hydroxylase inhibitors” (priority 2013, dated 2023)
# Tested on: jejunal mucosal 5-HT in mice (C57 BL6)
# Assay: Reduction of mucosal 5-HT concentrations (Example C, repeated oral dosing)
# Assay type: in vivo, mouse
# Details: P-value class
# Procedure: The efficacy of the TPH1 inhibitors of the invention was assessed for the ability to decrease intestinal serotonin concentration in mice. Mice (C57 BL6) were administered an oral dose of 10 or 50 mg/kg of the test article in the evening. […] Following an overnight fast, each animal was euthanized by exsanguination under isoflurane anesthesia. Jejunal intestinal mucosa was isolated and homogenized in […] of a buffer containing 0.3M trichloroacetic acid, 0.1M sodium acetate, 10 mM EDTA, 20 mM sodium bisulfate and 50 mM ascorbic acid. Following centrifugation the 5-HT levels in the supernatants were measured by HPLC. The remaining mucosal pellet was solubilized overnight at 37° C. in a 0.1% sodium dodecyl sulfate buffer in 0.1N NaOH followed by determination of protein concentrations using a BCA protein assay (Pierce, Rockford, Ill.). 5-HT levels were normalized to protein and data were expressed as mean percent reduction of mucosal 5-HT levels relative to vehicle control±SEM (percent 5-HT reduction). All animal studies were carried out with protocols approved by the Institutional Animal Care and Use Committee. P-values, indicating statistical significance of the data (ANOVA) are provided in the table: * refers to P<0.05,** refers to P<0.01, *** refers to P<0.005, and **** refers to P<0.0005.
# [1] = after three oral doses (first 10 or 50 mg/kg, then two doses of 50 mg/kg) (title)
Compound,Efficacy (statistical significance of reduction of mucosal 5-HT concentrations relative to vehicle) [1],Efficacy (statistical significance of reduction of mucosal 5-HT concentrations relative to vehicle) ((title))
"CCOC(=O)[C@@H]1CC2(CCN(c3cc(O[C@H](c4ccc(Cl)cc4-c4cccc(C)c4)C(F)(F)F)nc(N)n3)CC2)CN1 [Example 63aq, (S)-ethyl 8-(2-amino-6-((R)-1-(5-chloro-3′-methyl-[1,1′-biphenyl]-2-yl)-2,2,2-trifluoroethoxy)pyrimidin-4-yl)-2,8-diazaspiro[4.5]decane-3-carboxylate]",*** (*** refers to P<0.005),–
"CCOC(=O)[C@@H]1CC2(CCN(c3cc(O[C@H](c4ccc(Cl)cc4-c4cccc(C(F)(F)F)c4)C(F)(F)F)nc(N)n3)CC2)CN1 [Example 63ar, (S)-ethyl 8-(2-amino-6-((R)-1-(5-chloro-3′-(trifluoromethyl)-[1,1′-biphenyl]-2-yl)-2,2,2-trifluoroethoxy)pyrimidin-4-yl)-2,8-diazaspiro[4.5]decane-3-carboxylate]",**** (**** refers to P<0.0005),–
"CCOC(=O)[C@@H]1CC2(CCN(c3cc(O[C@H](c4ccc(-c5ccc(Cl)c(Cl)c5)cc4-n4ccc(C)n4)C(F)(F)F)nc(N)n3)CC2)CN1 [Example 63aw, (S)-ethyl 8-(2-amino-6-((R)-1-(3′,4′-dichloro-3-(3-methyl-1H-pyrazol-1-yl)-[1,1′-biphenyl]-4-yl)-2,2,2-trifluoroethoxy)pyrimidin-4-yl)-2,8-diazaspiro[4.5]decane-3-carboxylate]",**** (**** refers to P<0.0005),–
"CCOC(=O)[C@@H]1CC2(CCN(c3cc(O[C@H](c4ccc(-c5ccc(OC(C)C)cc5)cc4-n4ccc(C)n4)C(F)(F)F)nc(N)n3)CC2)CN1 [Example 63cn, (S)-ethyl 8-(2-amino-6-((R)-2,2,2-trifluoro-1-(4′-isopropoxy-3-(3-methyl-1H-pyrazol-1-yl)-[1,1′-biphenyl]-4-yl)ethoxy)pyrimidin-4-yl)-2,8-diazaspiro[4.5]decane-3-carboxylate]",**** (**** refers to P<0.0005),–
"CCOC(=O)[C@@H]1CC2(CCN(c3cc(O[C@H](c4ccc(Cl)cc4-c4cccc(C(C)(C)C)c4)C(F)(F)F)nc(N)n3)CC2)CN1 [Example 63el, (S)-ethyl 8-(2-amino-6-((R)-1-(3′-(tert-butyl)-5-chloro-[1,1 biphenyl]-2-yl)-2,2,2-trifluoroethoxy)pyrimidin-4-yl)-2,8-diazaspiro[4.5]decane-3-carboxylate]",*** (*** refers to P<0.005),–
"CCOC(=O)[C@@H]1CC2(CCN(c3cc(O[C@H](c4ccccc4-c4cccc(Cl)c4)C(F)(F)F)nc(N)n3)CC2)CN1 [Example 63eo, (S)-ethyl 8-(2-amino-6-((R)-1-(3′-chloro-[1,1′-biphenyl]-2-yl)-2,2,2-trifluoroethoxy)pyrimidin-4-yl)-2,8-diazaspiro[4.5]decane-3-carboxylate]",*** (*** refers to P<0.005),–
"CCOC(=O)[C@@H]1CC2(CCN(c3cc(O[C@H](c4ccc(Cl)cc4-c4cccc(OC)c4)C(F)(F)F)nc(N)n3)CC2)CN1 [Example 63ep, (S)-ethyl 8-(2-amino-6-((R)-1-(5-chloro-3′-methoxy-[1,1′-biphenyl]-2-yl)-2,2,2-trifluoroethoxy)pyrimidin-4-yl)-2,8-diazaspiro[4.5]decane-3-carboxylate]",*** (*** refers to P<0.005),–
"CCOC(=O)[C@@H]1CC2(CCN(c3cc(O[C@H](c4ccc(Cl)cc4-c4cccc(F)c4)C(F)(F)F)nc(N)n3)CC2)CN1 [Example 63ev, (S)-ethyl 8-(2-amino-6-((R)-1-(5-chloro-3′-fluoro-[1,1′-biphenyl]-2-yl)-2,2,2-trifluoroethoxy)pyrimidin-4-yl)-2,8-diazaspiro[4.5]decane-3-carboxylate]",*** (*** refers to P<0.005),–
"CCOC(=O)[C@@H]1CC2(CCN(c3cc(O[C@H](c4ccc(Cl)cc4-c4cc(F)cc(F)c4)C(F)(F)F)nc(N)n3)CC2)CN1 [Example 63ey, (S)-ethyl 8-(2-amino-6-((R)-1-(5-chloro-3′,5′-difluoro-[1,1′-biphenyl]-2-yl)-2,2,2-trifluoroethoxy)pyrimidin-4-yl)-2,8-diazaspiro[4.5]decane-3-carboxylate]",** (** refers to P<0.01),–
"CCOC(=O)[C@@H]1CC2(CCN(c3cc(O[C@H](c4ccc(Cl)cc4-c4cccnc4)C(F)(F)F)nc(N)n3)CC2)CN1 [Example 63fo, (S)-ethyl 8-(2-amino-6-((R)-1-(4-chloro-2-(pyridin-3-yl)phenyl)-2,2,2-trifluoroethoxy)pyrimidin-4-yl)-2,8-diazaspiro[4.5]decane-3-carboxylate]",* (* refers to P<0.05),–
"CCOC(=O)[C@@H]1CC2(CCN(c3cc(O[C@H](c4ccc(-c5ccc(OC)cc5)cc4-n4ccc(C)n4)C(F)(F)F)nc(N)n3)CC2)CN1 [Example 63ha, (S)-ethyl 8-(2-amino-6-((R)-2,2,2-trifluoro-1-(4′-methoxy-3-(3-methyl-1H-pyrazol-1-yl)-[1,1′-biphenyl]-4-yl)ethoxy)pyrimidin-4-yl)-2,8-diazaspiro[4.5]decane-3-carboxylate]",** (** refers to P<0.01),–
"CCOC(=O)[C@@H]1CC2(CCN(c3cc(O[C@H](c4ccc(Cl)cc4-c4ccccc4)C(F)(F)F)nc(N)n3)CC2)CN1 [Example 63i, (S)-ethyl 8-(2-amino-6-((R)-1-(5-chloro-[1,1′-biphenyl]-2-yl)-2,2,2-trifluoroethoxy)pyrimidin-4-yl)-2,8-diazaspiro[4.5]decane-3-carboxylate]",*** (*** refers to P<0.005),–
"CC(C)OC(=O)[C@@H]1CC2(CCN(c3cc(O[C@H](c4ccc(Cl)cc4-c4ccccc4)C(F)(F)F)nc(N)n3)CC2)CN1 [Example 69a, (S)-isopropyl 8-(2-amino-6-((R)-1-(5-chloro-[1,1′-biphenyl]-2-yl)-2,2,2-trifluoroethoxy)pyrimidin-4-yl)-2,8-diazaspiro[4.5]decane-3-carboxylate]",*** (*** refers to P<0.005),–
"CCCOC(=O)[C@@H]1CC2(CCN(c3cc(O[C@H](c4ccc(Cl)cc4-c4ccccc4)C(F)(F)F)nc(N)n3)CC2)CN1 [Example 69c, (S)-propyl 8-(2-amino-6-((R)-1-(5-chloro-[1,1′-biphenyl]-2-yl)-2,2,2-trifluoroethoxy)pyrimidin-4-yl)-2,8-diazaspiro[4.5]decane-3-carboxylate]",*** (*** refers to P<0.005),–
"(S)-cyclopentyl 8-(2-amino-6-((R)-1-(4′-chloro-3-(3- methyl-1H-pyrazol-1-yl)-[1,1′-biphenyl]-4-yl)-2,2,2- trifluoroethoxy)pyrimidin-4-yl)-2,8- diazaspiro[4.5]decane-3-carboxylate [Example 69b]",–,*** (*** refers to P<0.005)
